Data taken from PubChem BioAssay AID216 (DTP/NCI, 2004).
Where “and” joins values, the source holds several entries; their conditions need not be identical. Equal entries are not always repeated. Toxic doses and inconclusive results are not listed. The calls were made as follows: active = survival T/C of 150% or more; inactive = T/C below 125% in these data.

Tested on: BDF1 mice, P288 leukemia ip, survival T/C
Assay: NCI In Vivo Anticancer Drug Screen. Data for tumor model P288 Lymphocytic Leukemia (intraperitoneal) in B6D2F1 (BDF1) mice
Details: endpoint: survival time, mean or median, higher = longer survival
Experimental: The antitumor activity of compounds was measured in mice bearing transplantable tumors. Survival or tumor size were measured and the results are expressed as the measurement made in the treated group (T) divided by the measurement made in the vehicle treated control group (C). The tumor model used in this assay is P288 Lymphocytic Leukemia (intraperitoneal) in B6D2F1 (BDF1) mice

[1] = dose: 6.25 mg/kg/injection, schedule: Q01DX Z (ip), vehicle: carboxymethylcellulose (CMC)
[2] = dose: 12.5 mg/kg/injection, schedule: Q01DX Z (ip), vehicle: carboxymethylcellulose (CMC)
[3] = dose: 50.0 mg/kg/injection, schedule: Q01DX Z (ip), vehicle: carboxymethylcellulose (CMC)
[4] = dose: 25.0 mg/kg/injection, schedule: Q01DX010 (ip), vehicle: saline
[5] = dose: 25.0 mg/kg/injection, schedule: Q01DX Z (ip), vehicle: carboxymethylcellulose (CMC)
[6] = dose: 50.0 mg/kg/injection, schedule: Q01DX010 (ip), vehicle: saline
[7] = dose: 100.0 mg/kg/injection, schedule: Q01DX010 (ip), vehicle: saline
[8] = dose: 200.0 mg/kg/injection, schedule: Q01DX010 (ip), vehicle: saline

Measured: T/C

CCCSc1ncnc2nc[nH]c12
inactive: [1] 113 % of control | [2] 105 % of control | dose: 31.3 mg/kg/injection, schedule: Q01DX010 (ip), vehicle: saline 88 % of control | [3] 115 % of control | dose: 62.5 mg/kg/injection, schedule: Q01DX010 (ip), vehicle: saline 94 % of control | dose: 125.0 mg/kg/injection, schedule: Q01DX010 (ip), vehicle: saline 88 % of control

CCOC(=O)NP(=O)(N1CC1(C)C)N1CC1(C)C (stereo not given)
active: dose: 250.0 mg/kg/injection, schedule: Q01DX Z (ip), vehicle: carboxymethylcellulose (CMC) 180 % of control
inactive: dose: 16.0 mg/kg/injection, schedule: Q01DX Z (ip), vehicle: carboxymethylcellulose (CMC) 95 % of control | dose: 31.0 mg/kg/injection, schedule: Q01DX Z (ip), vehicle: carboxymethylcellulose (CMC) 98 % of control | dose: 62.5 mg/kg/injection, schedule: Q01DX Z (ip), vehicle: carboxymethylcellulose (CMC) 112 % of control | dose: 500.0 mg/kg/injection, schedule: Q01DX Z (ip), vehicle: carboxymethylcellulose (CMC) 117 % of control

Nc1nc2n[nH]nc2c(=O)[nH]1
inactive: dose: 12.5 mg/kg/injection, schedule: Q01DX Z (ip), vehicle: other 111 % of control | dose: 25.0 mg/kg/injection, schedule: Q01DX010 (ip), vehicle: alkali diluted with saline 100 % of control
active: dose: 100.0 mg/kg/injection, schedule: Q01DX Z (ip), vehicle: other 152 % of control and 183 % of control | dose: 200.0 mg/kg/injection, schedule: Q01DX Z (ip), vehicle: other 195 % of control

O=C(Nc1ccc(NC(=O)Nc2cccc(C3=NCCN3)c2)cc1)Nc1cccc(C2=NCCN2)c1
active: dose: 60.0 mg/kg/injection, schedule: Q01DX010 (ip), vehicle: saline 163 % of control and 168 % of control | dose: 120.0 mg/kg/injection, schedule: Q01DX010 (ip), vehicle: saline 173 % of control and 210 % of control | dose: 240.0 mg/kg/injection, schedule: Q01DX010 (ip), vehicle: saline 221 % of control | dose: 480.0 mg/kg/injection, schedule: Q01DX010 (ip), vehicle: saline 152 % of control

CCOC(=O)c1[nH]c2ccccc2c1CN(CCCl)CCCl
inactive: dose: 20.0 mg/kg/injection, schedule: Q01DX010 (ip), vehicle: saline 95 % of control | dose: 40.0 mg/kg/injection, schedule: Q01DX010 (ip), vehicle: saline 100 % of control

O=C(Nc1ccc(C2=NCCN2)cc1)c1ccc(C(=O)Nc2ccc(C3=NCCN3)cc2)c(Cl)c1
inactive: dose: 2.0 mg/kg/injection, schedule: Q01DX010 (ip), vehicle: other 108 % of control and 120 % of control | dose: 7.5 mg/kg/injection, schedule: Q01DX Z (ip), vehicle: water 107 % of control
120 % of control and 296 % of control: dose: 32.0 mg/kg/injection, schedule: Q01DX010 (ip), vehicle: other
active: dose: 8.0 mg/kg/injection, schedule: Q01DX010 (ip), vehicle: other 160 % of control and 183 % of control | dose: 16.0 mg/kg/injection, schedule: Q01DX010 (ip), vehicle: other 232 % of control and 262 % of control | dose: 30.0 mg/kg/injection, schedule: Q01DX Z (ip), vehicle: water 154 % of control

O=C(Nc1ccc(C2=NCCN2)cc1)c1cccc(C(=O)Nc2ccc(C3=NCCN3)cc2)c1
inactive: dose: 2.4 mg/kg/injection, schedule: Q01DX Z (ip), vehicle: carboxymethylcellulose (CMC) 101 % of control | dose: 4.7 mg/kg/injection, schedule: Q01DX Z (ip), vehicle: carboxymethylcellulose (CMC) 92 % of control | dose: 9.4 mg/kg/injection, schedule: Q01DX Z (ip), vehicle: carboxymethylcellulose (CMC) 105 % of control | dose: 75.0 mg/kg/injection, schedule: Q01DX Z (ip), vehicle: carboxymethylcellulose (CMC) 112 % of control
active: dose: 16.0 mg/kg/injection, schedule: Q01DX010 (ip), vehicle: saline 211 % of control and 262 % of control | dose: 18.8 mg/kg/injection, schedule: Q01DX Z (ip), vehicle: carboxymethylcellulose (CMC) 161 % of control | dose: 32.0 mg/kg/injection, schedule: Q01DX010 (ip), vehicle: saline 255 % of control and 375 % of control | dose: 37.5 mg/kg/injection, schedule: Q01DX Z (ip), vehicle: carboxymethylcellulose (CMC) 230 % of control | dose: 64.0 mg/kg/injection, schedule: Q01DX010 (ip), vehicle: saline 333 % of control and 375 % of control | dose: 128.0 mg/kg/injection, schedule: Q01DX010 (ip), vehicle: saline 268 % of control and 333 % of control

CSc1ncnc2nc[nH]c12
inactive: [1] 105 % of control | [2] 101 % of control | [4] 90 % of control | [5] 101 % of control | [6] 86 % of control and 90 % of control | [3] 113 % of control and 88 % of control | [7] 100 % of control | [8] 90 % of control and 100 % of control

CS(=O)(=O)OCCCCOS(C)(=O)=O
inactive: dose: 6.25 mg/kg/injection, schedule: Q01DX010 (ip), vehicle: saline 110 % of control | dose: 12.5 mg/kg/injection, schedule: Q01DX010 (ip), vehicle: saline 105 % of control and 115 % of control | [4] 105 % of control and 110 % of control | [6] 121 % of control and 100 % of control

COc1cc2c(c(OC)c1OC)-c1ccc(N)c(=O)cc1[C@@H](NC(C)=O)CC2
active: dose: 0.5 mg/kg/injection, schedule: Q01DX010 (ip), vehicle: saline 157 % of control | dose: 1.0 mg/kg/injection, schedule: Q01DX010 (ip), vehicle: saline 164 % of control and 214 % of control | dose: 2.0 mg/kg/injection, schedule: Q01DX010 (ip), vehicle: saline 176 % of control and 242 % of control
inactive: dose: 4.0 mg/kg/injection, schedule: Q01DX010 (ip), vehicle: saline 100 % of control

CCN(CC)CCNc1ccc(C)c2sc3ccccc3c(=O)c12
inactive: [4] 110 % of control
active: [6] 205 % of control | dose: 51.0 mg/kg/injection, schedule: Q01DX010 (ip), vehicle: saline 155 % of control | [7] 180 % of control

COc1cc2c(c(OC)c1OC)-c1ccc(OC)c(=O)cc1[C@@H](NC(C)=O)CC2
inactive: dose: 0.12 mg/kg/injection, schedule: Q01DX Z (ip), vehicle: saline 109 % of control

CO[C@@H]1[C@@H](OC2OC(C)C(OC3CC(C)(O)C(OC(=O)CC(C)C)C(C)O3)C(N(C)C)C2O)[C@@H](CC=O)C[C@@H](C)C(=O)/C=C/C2O[C@H]2C[C@@H](C)OC(=O)C[C@H]1OC(C)=O (stereo not given in full)
inactive: dose: 37.5 mg/kg/injection, schedule: Q01DX010 (ip), vehicle: saline 94 % of control | [6] 112 % of control | dose: 75.0 mg/kg/injection, schedule: Q01DX010 (ip), vehicle: saline 88 % of control | dose: 150.0 mg/kg/injection, schedule: Q01DX010 (ip), vehicle: saline 88 % of control | dose: 300.0 mg/kg/injection, schedule: Q01DX010 (ip), vehicle: saline 100 % of control
active: [7] 162 % of control | [8] 168 % of control

Cn1cnc([N+](=O)[O-])c1Sc1ncnc2nc[nH]c12
inactive: [2] 104 % of control | [5] 112 % of control | [3] 114 % of control | dose: 100.0 mg/kg/injection, schedule: Q01DX Z (ip), vehicle: carboxymethylcellulose (CMC) 98 % of control

O=P1(N(CCCl)CCCl)NCCCO1 (stereo not given)
inactive: dose: 11.3 mg/kg/injection, schedule: Q01DX010 (ip), vehicle: saline 119 % of control | dose: 12.5 mg/kg/injection, schedule: Q01DX Z (ip), vehicle: saline 102 % of control and 106 % of control | dose: 25.0 mg/kg/injection, schedule: Q01DX Z (ip), vehicle: saline 113 % of control and 116 % of control | dose: 50.0 mg/kg/injection, schedule: Q01DX Z (ip), vehicle: saline 112 % of control and 113 % of control | dose: 62.5 mg/kg/injection, schedule: Q01DX Z (ip), vehicle: saline 124 % of control | dose: 125.0 mg/kg/injection, schedule: Q01DX Z (ip), vehicle: saline 113 % of control | dose: 180.0 mg/kg/injection, schedule: Q01DX010 (ip), vehicle: saline 91 % of control | dose: 200.0 mg/kg/injection, schedule: Q01DX Z (ip), vehicle: saline 86 % of control and 95 % of control
active: dose: 45.0 mg/kg/injection, schedule: Q01DX010 (ip), vehicle: saline 150 % of control and 198 % of control | dose: 90.0 mg/kg/injection, schedule: Q01DX010 (ip), vehicle: saline 158 % of control | dose: 100.0 mg/kg/injection, schedule: Q01DX Z (ip), vehicle: saline 152 % of control
